# Assay results as given in patent US20250161309A1, “TOPICAL COMPOSITIONS AND USES THEROF” (TOPADUR PHARMA AG, priority 2022, published 2025).
# How the values were obtained:
# [1] = test system: C57BL/6 mouse model of alopecia; assay: Topical administration and hair growth in C57BL/6 mouse model of alopecia (telogen phase, clipped dorsal skin); type: in vivo; conditions: female mice
# Source text: Dorsal hair of C57BL/6 mouse is known to have a time synchronized hair cycle. From about 18-21 days of age (2-3 weeks old) and 47-95 days of age (6-14 weeks old), the dorsal hair are in the telogen/quiescent phase (visually pink skin) [Lee B H, Lee J S, Kim Y C. Hair growth-promoting effects of lavender oil in C57BL/6 mice. Toxicol Res. (2016) 32(2):103-108; Choi H I, Kang B M, Jang J, Hwang S T, Kwon O. Novel effect of sildenafil on hair growth. Biochem Biophys Res Commun. (2018) 505(3):685-691]. C57BL/6 mouse therefore is a well-established model for studying hair growth promotion.
# Male and female C57BL/6 mice of 6 to 9 weeks of age in stable telogen phase of hair growth cycle were used (obtained from Vivo Bio Tech Ltd, Telangana, India).
# 50 μL of a clear solution of respective 0.02%, 0.002% and 0.0002% (w/v) concentrations of Cpd 1 in the corresponding vehicle (PEG-400:EtOH/7:3) (PEG-400: Central Drug House Ltd. Dehli, India; Ethanol: Changshu Hongsheng fine chemicals Co. Ltd. China) and the positive control, 2% solution (female) or 5% (male) (w/v) Minoxidil (Chemieliva, China) in the corresponding vehicle (PEG-400:EtOH/7:3) were topically applied to the clipped area on the dorsal back of the mice. The solutions covered a circular area of approximately 2 cm^2. The treatment regimen was twice daily application for 5 days/week for total of 4 weeks.
# The selected animals on day 1 weighted on average 20.05 g±0.17 ranging from 19.8 to 20.2 g. The hair on the dorsal back (approx. 4×4 cm^2) of these animals were clipped without touching the skin of the animal, using an electric clipper, on day 0 before the treatment with Cpd 1 and the hair was collected. The treatment followed by visual analysis for anagen onset, skin color change and appearance of any hair growth were monitored. After completion of the experiment, the dorsal skin of all the animals was removed and visual melanogenesis was reported. The skin sections were then preserved in 10% formalin solution for further histopathology analysis.
# Animals were observed during 30 days and the hair growth score was recorded on daily basis. The criteria for scoring of hair growth is as follows: no hair growth, pink skin—score 0; skin colour changes from pink to grey/light grey without visible hair growth—score 0.5 onset of anagen (skin colour changes from grey/light grey to dark grey/black without visible hair growth)—score 1; sparse hair growth—score 1.5; diffuse short hair growth—score 2, moderate hair growth—score 2.5 and dense, normal coat hair—score 3 (Lee B H, Lee J S, Kim Y C. Hair growth-promoting effects of lavender oil in C57BL/6 mice. Toxicol Res. (2016) 32(2):103-108).
# Photographs of the animals were captured before the initiation and during the course of the study.
# (§1) After completion of the experiments all animals were sacrificed by euthanasia (Choi H I, Kang B M, Jang J, Hwang S T, Kwon O. Novel effect of sildenafil on hair growth. Biochem Biophys Res Commun. (2018) 505(3):685-691). The dorsal skin of each animal was then removed by peeling. The peeled skin was spread and checked visually for the induction of melanogenesis indicated by visual blackening on the reverse side of the skin. The skin samples were evenly spread on a pre-labelled glass slide and kept in 10% formalin until further use. Later, the skin samples were embedded in paraffin and sectioned at 5 microns using a microtome and the corresponding slides per animal were prepared. The slides obtained were used for Haematoxylin & Eosin (H&E) staining and in the transverse and longitudinal sections' photomicrographs data, the total number of follicles in the dermis and the sub cutis were determined for each animal. The skin thickness was measured using Image J 1.44 software.
# The statistical analyses were performed using GraphPad Prism 9.0.0 software. Statistical significance was determined by One-way or Two-Way ANOVA followed by Tukey's multiple comparison test. […]
# [2] = test system: C57BL/6 mouse model for chemotherapy-induced alopecia (CIA); assay: Preventive C57BL/6 mouse model of cyclophosphamide (chemotherapy)-induced alopecia (CIA), topical administration; type: in vivo; conditions: female mice, 2% Minoxidil
# Protocol: Female C57BL/6 mice (Vivo Bio Tech Ltd, Telangana, India) of 6 to 9 weeks of age in stable telogen phase of hair growth cycle were used.
# 100 μL of a clear solution of respective 0.0004%, 0.002% (w/v) concentrations of Cpd 1 in the corresponding vehicle (PEG-400:EtOH/7:3) (PEG-400: Central Drug House Ltd. Dehli, India; Ethanol: Changshu Hongsheng fine chemicals Co. Ltd. China) and the positive control, 2% solution (w/v) Minoxidil (Chemieliva, China) in the corresponding vehicle (PEG-400:EtOH/7:3) were topically applied to the depilated area on the dorsal back of female mice. The solutions covered a circular area of approximately 4 cm^2. The treatment regimen was twice daily for 7 days before Cyclophosphamide injection and afterwards for 3 weeks.
# Animals (female) on day 1 weighted on average 18.8 g+0.2 ranging from 18.5 to 19.3 g. The animals were exposed by gentle clipping of hair from the dorsal back using an electric clipper. The following day, animals with clear skin were depilated using a depilatory cream. To evaluate the preventive potential of Cpd 1 in the chemotherapy-induced alopecia mouse model, animals were treated topically with 0.0004% and 0.002% Cpd 1, 2% Minoxidil and vehicle from day 1 onwards on the dorsal depilated skin with twice daily application regimen until day 10, when all the animals have attained the anagen stage. On day 11 after depilation, no application of the Cpd 1 or vehicle was done. This was considered a wash-out period. On day 12 after depilation, the animals were given intraperitoneal injection of cyclophosphamide (CYP-HiMedia Laboratories, Mumbai, India) at the dose of 150 mg/kg body weight. One day of wash-out period was given to the animals before restarting the treatment with Cpd 1. The treatment regimen was reinitiated with 0.0004% and 0.002% Cpd 1, 2% Minoxidil and vehicle in the respective groups for further 3 weeks. All the animals were observed from day 1 (experiment start) till day 30 (experiment termination and animal sacrifice day) and the hair growth score was recorded on a daily basis. The criteria for scoring of hair growth is as follows: no hair growth, pink skin—score 0; skin colour changes from pink to grey/light grey without visible hair growth—score 0.5; onset of anagen (skin colour changes from grey/light grey to dark grey/black without visible hair growth)—score 1; sparse hair growth—score 1.5; diffuse short hair growth—score 2, moderate hair growth—score 2.5 and dense, normal coat hair—score 3 (Lee B H, Lee J S, Kim Y C. Hair growth-promoting effects of lavender oil in C57BL/6 mice. Toxicol Res. (2016) 32(2):103-108). Photographs of the animals were captured before the initiation and during the course of the study. […]
# as §1, with “software. […]” for “software.”
smiles,measurement,setting,value
"CCCOc1ccc(S(=O)(=O)N2CCN(CCO[N+](=O)[O-])CC2)cc1-c1nc2c(CCC)cn(CC)c2c(=O)[nH]1 [Cpd 2, 2-(4-((3-(5-ethyl-4-oxo-7-propyl-4,5-dihydro-3H-pyrrolo[3,2-d]pyrimidin-2-yl)-4-propoxyphenyl)sulfonyl)piperazin-1-yl)ethyl nitrate]",number of follicles in the subcutis layer of the skin and total follicle counts compared to control group,[1],considerable higher number
same,animals with visual melanogenesis in peeled skin,"[1]; 0.002% (w/v), end of study",1/5
same,skin thickness compared to vehicle and 2% Minoxidil groups,[1]; 0.02% (w/v),increased
same,animals with visual melanogenesis in peeled skin,"[1]; 0.02% (w/v), end of study",1/5
same,"anagen hair follicles (histology, H&E) compared to control groups",[1]; Cpd 2-treated groups,more
same,area of black skin compared to control groups,[1]; at day 30,larger
same,adverse effects in relation to general health or body weight,"[1]; topical twice daily, 5 days/week, 4 weeks, compared to vehicle group",No adverse effects
same,day of skin colour change from pink to light grey (transition from telogen to anagen phase),"[1]; treated group 2 (Table 2: 0.002% (w/v)), after hair growth induction",10 day
same,hair growth score among treatment groups,"[1]; treated group 2 (Table 2: 0.002% (w/v)), at day 30, followed by low dose groups and Minoxidil group",maximal
same,hair growth (score) compared to 2% Minoxidil,"[1]; treated group 2 (Table 2: 0.002% (w/v)), at days 25, 29 and 30",significant increase
same,hair growth (score) compared to vehicle,"[1]; treated group 2 (Table 2: 0.002% (w/v), Composition A5), from day 23 on",significantly higher
same,hair growth compared to vehicle group,"[1]; treated group 3 (Table 2: 0.02% (w/v), Composition A6), at day 29 and 30",significantly higher
"Nc1cc(N2CCCCC2)nc(N)[n+]1[O-] [Minoxidil, 2,4-diamino-6-piperidinopyrimidine-3-oxide, reference compound]",visual melanogenesis in peeled skin,"[1]; positive control 2% (w/v) Minoxidil, end of study",No visual melanogenesis
same,animals with complete hair growth (hair growth score of 3),[2],3/7
same,animals with moderate hair growth (hair growth score of 2-2.5),[2],4/7
same,attainment of hair growth compared to vehicle,[2],faster attainment
same,depth and development of dermal papilla and long hair shaft of hair follicles observed (longitudinal skin sections),[2],majority of the animals
same,thickness of the skin compared to vehicle group,[2],slightly increase
same,mice with visual melanogenesis in peeled skin,[2]; end of study,7/7
same,"Ki-67 score (positive cells near the follicular region, semi-quantitative grading)",[2]; vehicle 0.4,1.1
same,"CD-31 mean score (perifollicular angiogenesis, semi-quantitative grading)",[2]; vehicle group 0.8,1.4
